The text below walks through data of patent publication US6025387A, “Gastroprotective flavone/flavanone compounds with therapeutic effect on inflammatory bowel disease” (Dong a Pharmaceutical Co., Ltd., priority 1996, dated 2000).

Structures are written as SMILES. ≈ marks a conversion by molar mass, not a printed value.

The test system of assay [1] is gastric mucosal damage induced by ethanolic HCl. Nature of the assay: Gastritis model induced with ethanolic-HCl. The conditions noted are these: po, 1 h, rat; for inhibition in vivo at 0.3 mg/kg: 0.3 mg/kg p.o.; for inhibition in vivo at 1 mg/kg: 1 mg/kg p.o.; for inhibition in vivo at 3 mg/kg: 3 mg/kg p.o. It is filed as in vivo, SD male rat. How it is done:
Effect on the Gastritis Model Induced with Ethanolic-HCl.
SD male rat(250-350 g) was fasted for 24 hours. The compound was orally administered in suspension of 5% HPMC, and after 1 hour 1.5 mL of 150 mM HCl-80% ethanol was orally administered. After 1 hour the rat was sacrifieced and the stomach was extracted and the ulcer index was measured. The ulcer index was shown by the area of hemorrhage lesion(Mizui, T, et al., Jpn. J. Pharmacol. 1983, 33: 939).

Another assay has as its system neutrophils. As to the kind of experiment: Luminol-dependent chemiluminescence of neutrophils induced by FMLP. It counts as cell-based. The conditions noted are these: 1 μM FMLP, 0.07 mM luminol; for IC50: Neutrophil, read-out: IC50, inhibition of chemiluminescence generated by neutrophil activation. How it is done:
Measurement of luminol-dependent chemiluminescencei iof neutrophil induced by FMLP.
20 mL of 12% sodium caseinate-0.9% saline was administered intraperitoneally (Newsby, A. C., Biochem. J., 1980, 186: 907,. After 20 hours, the intraperitoneal exudate was extracted under ether anesthesia. The exudate was centrifuged, and erythrocytes were removed by hypotonic lysis, and then neutrophil was washed. Neutrophil was ascertained by Wright's dyeing method, and viability was measured by Trypan blue exclusion test. Chemiluminescence was measured by Topcount (Packard Co.). The suspension of 1.5×10^6 of granulocytes, 1 μM of FMLP, 0.07 mM of luminol and the compound in HBSS was used (Dahlgren, C., et al., Infect. Immun., 1985 47: 326-328).
**IC50 (μg/mL): Concentration of the compound at inhibiting
chemiluminescence generated by neutrophil activation to 50%

A further assay deals with cyclooxygenase. As to the kind of experiment: Cyclooxygenase activity in HUVEC (PGF1 α synthesis). It is filed as cell-based. How it is done: Measurment of Cyclooxygenase Actvity
After addition of the compound to cultured HUVEC, the HUVEC was incubated at 37° C., for 30 minutes, then arachidonic acid (final concentration: 30 .rho.M) was added, and the HUVEC was additionally incubated at 37° C. for 15 minutes. The culture medium was taken, and the activity of cyclooxygenase for 6-Keto-PGF1 α or PGE2 was measured by radioimmunoassay (Mitchell, J. A., et al., Pro. Natl. Acad. Sci. USA 1994, 90: 11693-11697).
**SC200 (ug/mL) : Concentration at increasing generation of […]

Another assay deals with gastric mucus secretion. Nature of the assay: Measurement of gastric mucus. The note with it: oral, rat. It is filed as in vivo, SD male rat. How it is done:
Measurement of Gastric Mucus
The compound was orally administered into SD male rat (200~250 g). After 1 hour the stomach was extracted. The extracted stomach was immediately washed with 10 mL of cold 0.25M sucrose solution. The gastric mucosa was dyed with 0.1% alcian blue solution for 2 hours. After dyeing, the gastric mucosa was washed with 0.25M sucrose solution twice for 15 minutes and for 45 minutes. The dyed gastric mucosa was treated with 10 mL of 30% dioctyl sodium sulfosuccinate solution for 2 hours to extract dyed mucus completely and optical density of aqueous phase was measured spectrophotometrically at 655 nm. The amount of mucus in the gastric mucosa was shown as the amount of alcian blue after calibration (Kitagawa, H., et al., Drug Res. 1986, 36: 1240-1244).

For assay [2], the system named is chronic gastritis induced with acetic acid. As to the kind of experiment: Model of chronic gastritis induced with acetic acid. It is filed as in vivo, SD male rat. The conditions noted are these: once a day for 21 days, rat. How it is done:
Experiment on the Model of Chronic Gastritis Induced with Acetic Acid
From the next day of the surgical operation, the compound was orally administered once a day for 21 days. After 21 days, the stomach was extracted under ether anesthesis, dipped in 1% formalin solution and the area of gastric lesion was measured. […] An pathological tissue autopsy was carried out for the prepared specimen.

The subject of the next assay is ulcer. The conditions noted are these: in vivo; cited from earlier work.
The next assay concerns TNBS-induced colitis. Nature of the assay: TNBS-induced colitis model, oral administration. It is filed as in vivo, male SD rats. The note with it: for lesion scores: once a day for 13 days, rat; for adhesion degree / dilation and extention degree: score 0-3, rat. How it is done: Experiment on the Model of Inflammatory Bowl Diseases Induced with TNBS
7 week-aged male SD rats were fasted for a day, and the rats were put under anesthesia and canula (diameter 3 mm) was inserted into the anus to the depth of 8 cm. 25 mg/mL of TNBS (Trinitrobenzene sulfonic acid) dissolved in 50% ethanol solution was injected to each rat and the rats were positioned at feature of tail up for 1 minute. The solution flowing out was removed and the rats were once washed with 1.5 mL of saline solution. After colitis was induced, the compound was administered orally or intracolonically once a day for 13 days. For control, mesalazine (5-amino salicylic acid) was used for oral administration and prednisolone was used for rectal administration. At 14th day of experiment, each group of the rats were put under ether anesthesis, the colon was extracted and the degree of adhesion and extension of the large intestine were measured and their lesion scores were recorded. After 1% formalin solution was injected to the cavity of the extracted colon to inflate, the both ends of it were bonded with each other and it was all-fixed in 1% formalin solution for 2 hours. The all-fixed colon was cut to lengthy direction and washed to remove surrounding fat tissues and connective fissaes. After cecum was removed, the weight of the colon and the rectum was measured, and the area of ulcer lesion, and microscopic lesion were measured to mark scores according to the criterion. And they were fixed in 10% neutral formalin solution, and the tissue examination of lesion site was performed by general method to mark scores according to the criterion.
Clinical symptoms: Daily, we observed clinical symptoms and survival of the animals. And we measured the weight of the animals at the beginning day, third and eighth day of the experiment.
(0: non-adhesion, 1: adhesion exists but easily taken off by gloved hand, 2: more severe adhesion than 1 exists but easily taken off by scissors, 3: very severe adhesion exists, so it is difficult to be taken off by scissors because of possibility of its perforation.)
Degree of thickening and extension of the large intestine: We marked scores of the degree of thickness and extension of the large intestine according to the criterion, following the method of Kim et al., and compared with the average value of each group.
(0: lesion site non-existing, 1: a few degree of lesion, 2: intermediate degree of lesion, 3: severe degree of lesion)
We scored the lesion examined with the naked eye and compared the average value of each group. The standards of lesion scores as criterion of the damage of the colon by Wallace's method is as followings.
(0: normal, non-damaged, 1: congestion without ulcer 2: congestion and thickening of intestinal wall without ulcer, 3: an ulcer lesion without thickening of intestinal wall, 4: more than two ulcerous/inflammatory lesion, 5: more than two ulcerous/inflammatory lesion or the length of ulcerous/inflammatory lesion is more than 1 cm, 6-10: when the length of lesion is over 2 cm, one point increases everytime 1 cm of the length of ulcerous/inflammatory increases, for example, when the ulcer length is 3 cm, the point is 7.)
Microscopic evaluation: We trimmed the colon giving 3 cm interval from the rectum to the cecum, including the site of lesion examined with the naked eye, to make at least 4 specimens per an individual. […] When the lesion can not be examined with the naked eye, we trimmed the other specimen which has the lesion, with 3 cm interval.

Consider `COc1ccc(-c2cc(=O)c3c(O)c(OC)ccc3o2)cc1OC` [5-hydroxy-3',4',6-trimethoxy flavone], for which, in assay [1], at 0.3 mg/kg the inhibition in vivo was 38%; testing at 1 mg/kg gave an inhibition in vivo of 42%; the inhibition in vivo (in general, the drop in the measured response relative to a control, in per cent) at 3 mg/kg came out at 64%.

`CNC(=O)COc1cc(OC)c2c(=O)cc(-c3ccc(OC)c(OC)c3)oc2c1` [7-(N-methylamidomethyloxy)-3',4',5-trimethoxy flavone]: in assay [1], testing at 0.3 mg/kg gave an inhibition in vivo of 43%, the inhibition in vivo at 1 mg/kg stood at 47% and testing at 3 mg/kg gave an inhibition in vivo of 45%.

Consider `COc1ccc(-c2cc(=O)c3cc(OC)c(OCC(=O)O)cc3o2)cc1OC` [7-carboxymethyloxy-3',4',6-trimethoxy flavone], for which, in assay [1], the inhibition in vivo at 0.3 mg/kg is 30%, testing at 1 mg/kg gave an inhibition in vivo of 31% and the inhibition in vivo at 3 mg/kg is 39%.

Regarding `COc1ccc(C2CC(=O)c3c(cc(OCC(=O)O)c(OC)c3O)O2)cc1OC` (centres unmarked) [7-carboxymethyloxy-5-hydroxy-3',4',6-trimethoxy flavanone], the IC50 (usually the concentration at which inhibition is half-maximal) in the assay with neutrophils came out at 1.79 µg/mL (≈ 4.43 µM). In assay [1], this molecule yielded an inhibition in vivo at 0.3 mg/kg of 0%, an inhibition in vivo at 1 mg/kg of 18% and an inhibition in vivo at 3 mg/kg of 50%.

On to `COc1ccc(-c2cc(=O)c3c(O)c(OC)c(OCC(=O)O)cc3o2)cc1OC` [7-carboxymethyloxy-5-hydroxy-3',4',6-trimethoxy flavone], for which, in the assay with neutrophils, the IC50 was 1.73 µg/mL (≈ 4.3 µM). In assay [1], this molecule had an inhibition in vivo at 0.3 mg/kg of 16%, an inhibition in vivo at 1 mg/kg of 77% and an inhibition in vivo at 3 mg/kg of 56%. In addition, the “SC200, concentration increasing generation of PGF1α to 200%” value with cyclooxygenase turned out to be 18.41 µg/mL.

In assay [1], `COc1ccc(C2CC(=O)c3c(OC)cc(O)cc3O2)cc1OC` (centres unmarked) [7-hydroxy-3',4'5-trimethoxy flavanone, 7-hydroxy-3',4',5-trimethoxy flavanone] returned an inhibition in vivo at 0.3 mg/kg of 30%, an inhibition in vivo at 1 mg/kg of 57% and an inhibition in vivo at 3 mg/kg of 76%.

Consider `COc1ccc(-c2cc(=O)c3c(OC)c(OC)c(OCCO)cc3o2)cc1OC` [7-hydroxyethyloxy-3',4',5,6-tetramethoxy flavone], for which the IC50 in the assay on neutrophils is 0.13 µg/mL (≈ 0.323 µM). In assay [1], this molecule yielded an inhibition in vivo at 0.3 mg/kg of 43%, an inhibition in vivo at 1 mg/kg of 50% and an inhibition in vivo at 3 mg/kg of 51%.

In assay [1], `COc1ccc(-c2cc(=O)c3c(OC)cc(OCCO)cc3o2)cc1OC` [7-hydroxyethyloxy-3',4',5-trimethoxy flavone] gave an inhibition in vivo at 0.3 mg/kg of 0%, an inhibition in vivo at 1 mg/kg of 34% and an inhibition in vivo at 3 mg/kg of 47%.

Regarding `COC(=O)COc1cc(OC)c2c(=O)cc(-c3ccc(OC)c(OC)c3)oc2c1` [7-methoxycarbomethyloxy-3',4',5-trimethoxy flavone], the IC50 with neutrophils stood at 0.95 µg/mL (≈ 2.37 µM).

Take `O=C(NC(Cc1cc(=O)[nH]c2ccccc12)C(=O)O)c1ccc(Cl)cc1` (centres unmarked) [Rebamipide, 2(4-chlorobenzoylamino)-3-(2-(LH)-quinolinone-4-yl)propanonic acid, reference compound]: the “IC50, inhibition of chemiluminescence generated by neutrophil activation” value in the assay with neutrophils was determined as 92 µg/mL. Moreover, the half-maximal inhibitory concentration (IC50) with neutrophils was 92.1 µg/mL (≈ 248 µM). In addition, in assay [1], the inhibition in vivo at 3 mg/kg was 22%. Further, the inhibition in vivo at 10 mg/kg in assay [1] (10 mg/kg p.o.) was 30%. Also, in assay [1] (30 mg/kg p.o.), at 30 mg/kg the inhibition in vivo was 47%. The “gastric mucus secretion, % Control” value with gastric mucus secretion (10 mg/kg) is reported as 128 % Control; with gastric mucus secretion (100 mg/kg), 136 % Control. In addition, the “inhibiting% (gastric lesion)” value is 41% in assay [2] (10 mg/kg p.o.) and 7% in assay [2] (100 mg/kg p.o.).

For the molecule `COc1ccc(-c2cc(=O)c3c(O)cc(OC)cc3o2)cc1` [apigenin-7,4'-dimethylether], in the assay on ulcer, the anti-ulcerative action result was “anti-ulcerative action”.

As to `COc1ccc([C@@H]2CC(=O)c3c(O)cc(O[C@@H]4O[C@H](CO[C@@H]5O[C@@H](C)[C@H](O)[C@@H](O)[C@H]5O)[C@@H](O)[C@H](O)[C@H]4O)cc3O2)cc1O` [hesperidine], the anti-ulcerative action result in the assay on ulcer is on record as “anti-ulcerative action”.

As for `O=c1cc(-c2ccc(O)c(O)c2)oc2c(O[C@@H]3O[C@H](CO)[C@@H](O)[C@H](O)[C@H]3O)c(O)cc(O)c12` [hypolaetin-8-glucoside], in the assay with ulcer, the anti-ulcerative action result is “anti-ulcerative action”.

For the molecule `O=c1c(O)c(-c2ccc(O)cc2)oc2cc(O)cc(O)c12` [kampferol], the anti-ulcerative action entry in the assay on ulcer is recorded as “anti-ulcerative action”.

`Nc1ccc(O)c(C(=O)O)c1` [mesalazine, 5-amino salicylic acid, reference compound]: in the assay with TNBS-induced colitis (25 mg/kg p.o.), the lesion scores was 2.8; the adhesion degree is given as 1.4; the “dilation and extention degree” value worked out at 0.9. Besides, in the assay on TNBS-induced colitis (50 mg/kg p.o.), the lesion scores is 2.2; the adhesion degree is 1.0; the “dilation and extention degree” value came out at 1.1.

`O=C1C[C@@H](c2ccc(O)cc2)Oc2cc(O)cc(O)c21` [naringenin]: in the assay on ulcer, the anti-ulcerative action result is “anti-ulcerative action”.

As for `O=c1c(O)c(-c2ccc(O)c(O)c2)oc2cc(O)cc(O)c12` [quercetin], in the assay on ulcer, the anti-ulcerative action entry was “anti-ulcerative action”.
